Source: US20260022143A1, “Cyclic Peptide Inhibitors of IL-23” (JANSSEN PHARMACEUTICA NV, priority 2022, published 2026)
Starred links: 1 amine or outer side, 2 acyl side, 3 side chain; linkers in the order of their positions; H or OH if unused. Positions of bridges follow the written chain, without caps; N, C: chain ends. Non-standard residues stand in square brackets, D forms with d. Residues, ends and D or L forms follow the SMILES beside them. *: point of attachment. Me3N+(CH2)2O(CH2)2O(CH2)2CO = C[N+](C)(C)CCOCCOCCC(=O)*; X39 = NCCc1cn(-c2ccc(C[C@H](N[*:1])C(=O)[*:2])cc2)nn1; Trp(7-Me) = Cc1cccc2c(C[C@H](N)C(=O)O)c[nH]c12; Abu(4-yl) = O=C([C@H](CC[*:3])N[*:1])[*:2]; Lys(Me3) = C[N+](C)(C)CCCC[C@H](N)C(=O)O; 2Nal = N[C@@H](Cc1ccc2ccccc2c1)C(=O)O; 3Pal = N[C@@H](Cc1cccnc1)C(=O)O; Lys(Me) = CNCCCC[C@H](N)C(=O)O; Pen = CC(C)(S)[C@H](N)C(=O)O; αMeC = C[C@](N)(CS)C(=O)O; Thp = NC1(C(=O)O)CCOCC1; X3 = C[N+](C)(C)CCCCC*; Sar = CNCC(=O)O

What was measured:
IL-23R = target: T1, IL-23R (Homo sapiens, UniProt Q5VWK5); assay: IL23R Reporter Assay; format: cell-based; settings: HEK293 cells containing IL-23R, IL-12RP1 and STAT-inducible firefly luciferase reporter; 10 ng/mL IL-23 (EC90); 5 h at 37° C.; read-out: IL23R Reporter Assay
T1 construct: host or cells: HEK293
T1 sequence (Q5VWK5 24-629): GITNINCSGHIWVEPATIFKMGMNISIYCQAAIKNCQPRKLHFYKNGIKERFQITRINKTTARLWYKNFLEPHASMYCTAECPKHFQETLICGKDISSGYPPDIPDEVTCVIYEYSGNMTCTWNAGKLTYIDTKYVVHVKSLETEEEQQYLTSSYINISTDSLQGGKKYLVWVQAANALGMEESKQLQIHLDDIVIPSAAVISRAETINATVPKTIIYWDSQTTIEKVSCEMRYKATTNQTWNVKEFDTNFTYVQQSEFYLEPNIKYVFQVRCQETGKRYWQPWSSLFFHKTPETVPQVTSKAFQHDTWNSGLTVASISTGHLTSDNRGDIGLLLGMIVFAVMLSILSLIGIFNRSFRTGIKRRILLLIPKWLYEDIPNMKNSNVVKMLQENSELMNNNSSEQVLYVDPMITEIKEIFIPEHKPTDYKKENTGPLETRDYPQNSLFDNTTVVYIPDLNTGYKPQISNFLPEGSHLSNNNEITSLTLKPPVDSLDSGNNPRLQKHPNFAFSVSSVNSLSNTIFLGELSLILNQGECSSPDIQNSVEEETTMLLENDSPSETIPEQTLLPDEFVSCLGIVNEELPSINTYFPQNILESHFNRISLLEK

[1] = Exposed Polar Surface Area (EPSA); format: physicochemical; settings: SFC on Chirex 3014 column; sample 1 mM DMSO stock; read-out: EPSA
Outline: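 SFC retention on a Chirex 3014 (S)-valine/(R)-1-(α-naphthyl)ethylamine column, 35 °C, CO2 with MeOH (20 mM ammonium formate) gradient 5–60% at 20%/min, 14 MPa outlet. Retention times converted to EPSA (Å^2) via linear calibration with 8 standards; samples from 1 mM DMSO stock, run in duplicate.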

SMILES | IC50 (IL-23R) | EPSA [1]
CC(=O)N(C)CCCC[C@@H]1NC(=O)[C@H](C)NC(=O)[C@H]([C@@H](C)O)NC(=O)[C@H](CC(=O)N(C)C)NC(=O)[C@@H](NC(=O)CCOCCOCC[N+](C)(C)C)C(C)(C)SSC(C)(C)[C@@H](C(=O)N[C@@H](Cc2ccc(OCCCCC[N+](C)(C)C)cc2)C(=O)N[C@@H](Cc2ccc3ccccc3c2)C(=O)NC2(C(=O)N[C@@H](CCCCN(C)C(C)=O)C(=O)N[C@@H](CC(N)=O)C(=O)N[C@@H](Cc3cccnc3)C(=O)N(C)CC(=O)N(C)C)CCOCC2)NC1=O [compound 512, cPEG3aCO-Pen(3)-N(N(Me)2)-T-A-K(NMeAc)-Pen(3)-TMAPF-2Nal-THP-K(NMeAc)-N-3Pya-Sar-CONMe2] ({Me3N+(CH2)2O(CH2)2O(CH2)2CO}-[Pen]D(NMe2)TA[Lys(Me)](Ac)[Pen]Y(X3)[2Nal][Thp][Lys(Me)](Ac)N[3Pal][Sar]-NMe2; disulfide 1-6) | > 7350 nM | 205 A^2
CC(=O)NCCCC[C@@H]1NC(=O)[C@H](Cc2c[nH]c3c(-c4cccc(NC(C)=O)c4)cccc23)NC(=O)[C@H]([C@@H](C)O)NC(=O)[C@H](CC(N)=O)NC(=O)[C@@H](NC(C)=O)C(C)(C)SSC(C)(C)[C@@H](C(=O)N[C@@H](Cc2ccc(OCCNC(=N)N)cc2)C(=O)N[C@@H](Cc2ccc3ccccc3c2)C(=O)NC2(C(=O)N[C@@H](CCCCN(C)C(C)=O)C(=O)N[C@@H](CC(N)=O)C(=O)N[C@@H](Cc3cccnc3)C(=O)N(C)CC(N)=O)CCOCC2)NC1=O [compound 515, MeCO-Pen(3)-N-T-7(3NAcPh)W-K(Ac)-Pen(3)-AEF(G)-2Nal-THP-K(NMeAc)-N-3Pya-Sar-CONH2] | 3.8 nM | 197 A^2
CC(=O)NCCCC[C@@H]1NC(=O)[C@H](Cc2c[nH]c3ccccc23)NC(=O)[C@H]([C@@H](C)O)NC(=O)[C@H](CC(N)=O)NC(=O)[C@@H](NC(=O)[C@H](CCCNC(=N)N)NC(=O)CCOCCOCC[N+](C)(C)C)CCSC[C@@](C)(C(=O)N[C@@H](Cc2ccc(OCCCCC[N+](C)(C)C)cc2)C(=O)N[C@@H](Cc2ccc3ccccc3c2)C(=O)NC2(C(=O)N[C@@H](CCC(=O)O)C(=O)N[C@@H](CC(N)=O)C(=O)N[C@@H](Cc3cccnc3)C(=O)N(C)CC(N)=O)CCOCC2)NC1=O [compound 516, cPEG3aCO-r-Abu(1)-N-T-W-K(Ac)-aMeC(1)-TMAPF-2Nal-THP-E-N-3Pya-Sar-CONH2] ({Me3N+(CH2)2O(CH2)2O(CH2)2CO}-R[Abu(4-yl)]NTWK(Ac)[αMeC]Y(X3)[2Nal][Thp]EN[3Pal][Sar]-NH2; thioether 2-7) | 50 nM | 237 A^2
CC(=O)NCCCC[C@@H]1NC(=O)[C@H](Cc2c[nH]c3ccccc23)NC(=O)[C@H]([C@@H](C)O)NC(=O)[C@H](CC(N)=O)NC(=O)[C@@H](NC(=O)[C@H](CCCC[N+](C)(C)C)NC(C)=O)CCSC[C@@](C)(C(=O)N[C@@H](Cc2ccc(OCCCCC[N+](C)(C)C)cc2)C(=O)N[C@@H](Cc2ccc3ccccc3c2)C(=O)NC2(C(=O)N[C@@H](CCCCNC(C)=O)C(=O)N[C@@H](CC(N)=O)C(=O)N[C@@H](Cc3cccnc3)C(=O)N(C)CC(N)=O)CCOCC2)NC1=O [compound 517, MeCO-k(Me)3-Abu(1)-N-T-W-K(Ac)-aMeC(1)-TMAPF-2Nal-THP-K(Ac)-N-3Pya-Sar-CONH2] (Ac-[Lys(Me3)][Abu(4-yl)]NTWK(Ac)[αMeC]Y(X3)[2Nal][Thp]K(Ac)N[3Pal][Sar]-NH2; thioether 2-7) | 51 nM | 241 A^2
CC(=O)NCCCC[C@@H]1NC(=O)[C@H](Cc2c[nH]c3ccccc23)NC(=O)[C@H]([C@@H](C)O)NC(=O)[C@H](CC(N)=O)NC(=O)[C@@H](NC(=O)[C@@H](CCCNC(=N)N)NC(=O)CCOCCOCC[N+](C)(C)C)CCSC[C@@](C)(C(=O)N[C@@H](Cc2ccc(OCCCCC[N+](C)(C)C)cc2)C(=O)N[C@@H](Cc2ccc3ccccc3c2)C(=O)NC2(C(=O)N[C@@H](CCCCNC(C)=O)C(=O)N[C@@H](CC(N)=O)C(=O)N[C@@H](Cc3cccnc3)C(=O)N(C)CC(N)=O)CCOCC2)NC1=O [compound 518, cPEG3aCO-r-Abu(1)-N-T-W-K(Ac)-aMeC(1)-TMAPF-2Nal-THP-K(Ac-N-3Pya-Sar-CONH2] ({Me3N+(CH2)2O(CH2)2O(CH2)2CO}-[dR][Abu(4-yl)]NTWK(Ac)[αMeC]Y(X3)[2Nal][Thp]K(Ac)N[3Pal][Sar]-NH2; thioether 2-7) | 18 nM | 230 A^2

Results, then the compound that gave them:

IC50 (IL-23R) | EPSA [1] | SMILES
1.8 nM | 186 A^2 | CC(=O)NCCCC[C@@H]1NC(=O)[C@H](Cc2c[nH]c3c(-c4cccc(NC(C)=O)c4)cccc23)NC(=O)[C@H]([C@@H](C)O)NC(=O)[C@H](CC(N)=O)NC(=O)[C@@H](NC(=O)CCOCCOCC[N+](C)(C)C)C(C)(C)SSC(C)(C)[C@@H](C(=O)N[C@@H](Cc2ccc(OCCNC(=N)N)cc2)C(=O)N[C@@H](Cc2ccc3ccccc3c2)C(=O)NC2(C(=O)N[C@@H](CCCCN(C)C(C)=O)C(=O)N[C@@H](CC(N)=O)C(=O)N[C@@H](Cc3cncc(C)c3)C(=O)N(C)CC(N)=O)CCOCC2)NC1=O [compound 519, cPEG3aCO-Pen(3)-N-T-7(3NAcPh)W-K(Ac)-Pen(3)-AEF(G)-2Nal-THP-K(NMeAc)-N-3Pya-Sar-CONH2]
1.6 nM | 176 A^2 | CC(=O)NCCCC[C@@H]1NC(=O)[C@H](Cc2c[nH]c3c(C)cccc23)NC(=O)[C@H]([C@@H](C)O)NC(=O)[C@H](CC(N)=O)NC(=O)[C@@H](NC(=O)CCOCCOCC[N+](C)(C)C)C(C)(C)SSC(C)(C)[C@@H](C(=O)N[C@@H](Cc2ccc(-n3cc(CCN)nn3)cc2)C(=O)N[C@@H](Cc2ccc3ccccc3c2)C(=O)NC2(C(=O)N[C@@H](CCCCNC(C)=O)C(=O)N[C@@H](CC(N)=O)C(=O)N[C@@H](Cc3cccnc3)C(=O)N(C)CC(N)=O)CCOCC2)NC1=O [compound 522, cPEG3aCO-Pen(3)-N-T-7MeW-K(Ac)-Pen(3)-F(4TzlAme2)-2Nal-THP-K(Ac)-N-3Pya-Sar-CONH2] ({Me3N+(CH2)2O(CH2)2O(CH2)2CO}-[Pen]NT[Trp(7-Me)]K(Ac)[Pen][X39][2Nal][Thp]K(Ac)N[3Pal][Sar]-NH2; disulfide 1-6)
5.2 nM | 154 A^2 | CC(=O)N(C)CCCC[C@@H]1NC(=O)[C@H](Cc2c[nH]c3c(C)cccc23)NC(=O)[C@H]([C@@H](C)O)NC(=O)[C@H](CC(=O)N(C)C)NC(=O)[C@@H](NC(=O)CCOCCOCC[N+](C)(C)C)CCSC[C@@H](C(=O)N[C@@H](Cc2ccc(OCCCCC[N+](C)(C)C)cc2)C(=O)N[C@@H](Cc2ccc3ccccc3c2)C(=O)NC2(C(=O)N[C@@H](CCCCN(C)C(C)=O)C(=O)N[C@@H](CC(N)=O)C(=O)N[C@@H](Cc3cccnc3)C(=O)N(C)CC(=O)N(C)C)CCOCC2)NC1=O [compound 523, cPEG3aCO-Abu(1)-N(N(Me)2)-T-7MeW-K(NMeAc)-C(1)-TMAPF-2Nal-THP-K(NMeAc)-N-3Pya-Sar-CON(Me)2] ({Me3N+(CH2)2O(CH2)2O(CH2)2CO}-[Abu(4-yl)]D(NMe2)T[Trp(7-Me)][Lys(Me)](Ac)CY(X3)[2Nal][Thp][Lys(Me)](Ac)N[3Pal][Sar]-NMe2; thioether 1-6)
54 nM | 198 A^2 | CC(=O)NCCCC[C@@H]1NC(=O)[C@H](Cc2c[nH]c3c(C)cccc23)NC(=O)[C@H]([C@@H](C)O)NC(=O)[C@H](CC(N)=O)NC(=O)[C@@H](NC(=O)COc2ccc(-c3ccc(F)cc3F)cc2C(=O)O)C(C)(C)SSC(C)(C)[C@@H](C(=O)N[C@@H](Cc2ccc(OCCCCC[N+](C)(C)C)cc2)C(=O)N[C@@H](Cc2ccc3ccccc3c2)C(=O)NC2(C(=O)N[C@@H](CCCCNC(=O)CCCc3ccc(I)cc3)C(=O)N[C@@H](CC(N)=O)C(=O)N[C@@H](Cc3cccnc3)C(=O)N(C)CC(N)=O)CCOCC2)NC1=O [compound 524, DFNCO-Pen(3)-N-T-7MeW-K(Ac)-Pen(3)-TMAPF-2Nal-THP-K(IPB)-N-3Pya-Sar-CONH2]
